Experimental findings from paper PMC5852498, “Lactomycins A–C, Dephosphorylated Phoslactomycin Derivatives That Inhibit Cathepsin B, from the Marine-Derived Streptomyces sp. ACT232” (Marine Drugs, 2018) are described below.

SMILES strings stand for the structures. Read-outs that look alike come from different tables or passages of the source.

The assay has as its target T1, cathepsin B (Bos taurus, UniProt P07688).
T1 construct: gene CTSB; cathepsin B from bovine spleen (Sigma C6286)
The assay can be described thus: fluorogenic enzyme assay with Z-Arg-Arg-AMC, pH […] °C. In kind it is biochemical.

By IC50 is commonly meant the concentration needed to halve the response being measured. Molecule `CC[C@H]1C=CC(=O)O[C@H]1/C=C/[C@@](C)(O)[C@H](O)C[C@@H](O)/C=C\C=C/[C@@H]1CCC[C@H](O)C1` [compound 3, Lactomycin C] returned an IC50 of 1600 nM.
Turning to `CC[C@H]1C=CC(=O)O[C@H]1/C=C/[C@](O)(CCO)[C@H](O)C[C@@H](O)/C=C\C=C/[C@@H]1CCC[C@H](O)C1` [compound 1, Lactomycin A], the IC50 (read-out: IC50) stood at 4500 nM.
As for `CC[C@H]1C=CC(=O)O[C@H]1/C=C/[C@](O)(CCN)[C@H](O)C[C@@H](O)/C=C\C=C/[C@@H]1CCC[C@H](O)C1` [compound 2, Lactomycin B], the IC50 (read-out: IC50) turned out to be 800 nM.
